In ChEMBL document CHEMBL4414583, “Octahydro-Protoberberine and Protoemetine-Type Alkaloids from the Stems of Alangium salviifolium and Their Cytotoxicity” (J Nat Prod, 2019):

Legend:
Format in all cases: functional, cell-based
[1] = test system: SK-OV-3; experiment: Cytotoxicity against human SKOV3 cells assessed as reduction in cell viability incubated for 72 hrs by MTT assay; conditions: SK-OV-3, 72 h
[2] = test system: HeLa; experiment: Cytotoxicity against human HeLa cells assessed as reduction in cell viability incubated for 72 hrs by MTT assay
[3] = test system: A549; experiment: Cytotoxicity against human A549 cells assessed as reduction in cell viability incubated for 72 hrs by MTT assay; conditions: A549, 72 h

Structure (SMILES)	IC50 [1] [nM]	IC50 [2] [nM]	IC50 [3] [nM]
CC[C@H]1CN2CCc3cc(OC)c(OC)cc3[C@@H]2C[C@@H]1C[C@H]1NCCc2c1[nH]c1ccccc21	3	100	
CC[C@H]1CN2CCc3c(cc(OC)c(OC)c3O)[C@@H]2C[C@@H]1C[C@H]1NCCc2c1[nH]c1ccccc21	200	8200	3000
CC[C@H]1CN2CCc3c(cc(OC)c(OC)c3O)[C@@H]2C[C@@H]1C/C=[N+](/[O-])CC	5200	> 10000	> 10000
COc1cc2c(cc1O)[C@@H]1C[C@@H]3CC=CC[C@H]3CN1CC2	13900	9200	12500
CC[C@H]1CN2CCc3cc(OC)c(O)cc3[C@@H]2C[C@@H]1CCO	60	10	200
CC[C@H]1CN2CCc3cc(OC)c(OC)cc3[C@@H]2C[C@@H]1CCO	100	1200	300
CC[C@H]1CN2CCc3c(cc(OC)c(OC)c3O)[C@@H]2C[C@@H]1CCO	3600	5300	2100
CO[C@@H]1C=C[C@@]23c4cc5c(cc4CN(C[C@@H]2O)[C@H]3C1)OCO5 [(+)-HAEMANTHAMINE]	3700	1300	3000
CC[C@H]1CN2CCc3cc(OC)c(OC)cc3[C@@H]2C[C@@H]1C[C@H]1NCCc2cc(O)c(OC)cc21 [CEPHAELINE]	100	7600	3000
CC[C@H]1CN2CCc3cc(OC)c(OC)cc3[C@@H]2C[C@@H]1C[C@@H]1NCCc2cc(O)c(OC)cc21 [ISOCEPHAELINE]	3900	9400	2700
CC[C@H]1CN2CCc3cc(OC)c(OC)cc3[C@@H]2C[C@@H]1C[C@H]1NCCc2c1[nH]c1ccc(O)cc21 [TUBULOSINE]	400	> 10000	2100
